Test results as given in patent publication US11634381B2, “RUNX2 transcription factor inhibitors and uses thereof” (University of Maryland, Baltimore, priority 2015, dated 2023).

Columns and labels:
[1] = tested on: non-malignant cells (MCF10A, IEC-6, GES-1, C2C12); assay: Cell growth assay in non-malignant cells; type: cell-based, human, rat, murine; conditions: 0˜100 μM, 24˜72 hrs
Experimental: Cells wereplated on 96-well (30,000 cells/well) or 24-well plates (50,000 cells/well). After CADD522 (0˜100 μM) addition, cells were incubated for 24˜72 hrs. Cells were stained with crystal violet (0.5% in Methanol:Acetic Acid=3:1) and washed with PBS. Crystal violet was solubilized in DMSO and measured in a microplate reader at 592 nm.

[2] = tested on: MDA-231, MCF7, MDA-468, BT474 cells; assay: Combination of compound 1 and CDK inhibitors, cell proliferation and colony assays; type: cell-based, human
[3] = tested on: MDA-231, MDA-468, MCF7 and BT474 breast cancer cells; assay: ROS production luminometer assay; type: cell-based, human; conditions: 0-100 μM, 6-18 hours
Experimental: In FIG. 27A MDA-231, MDA-468, MCF7 and BT474 breast cancer cells were treated with compound 1 (0-100 μM) for 6-18 hours and ROS production in response to H2O2 treatment (2 mM) was measured with luciferase-based luminometer assay. In FIG. 27B T47D-Vector control or T47D-RUNX2-clone #10 overexpressing cells; MCF7-Vector Control or RUNX2-clone #2 overexpressing cells were treated with 50 μM compound 1 for 6 hours.

MCF7-tet-off cells = assay: 96 Well BME Cell Invasion Assay; type: cell-based, human; conditions: MCF7-tet-off (+Doxy) and (-Doxy), 50 μM, 24 hrs
Experimental: MCF7-tet-off cells were grown in the media with (+Doxy) or without doxycycline (−Dox) for 72 hours. Cells were then treated with compound 1 (50 μM) for 24 hrs, and trypsinized and suspended in serum-free media. Cells were re-plated in the top chamber precoated with 0.1× BME (Cultrex), and growth medium supplemented with 10% FBS was used as a chemoattractant in the bottom chamber. compound 1 was added to both chambers and incubated for 16 hrs. Cellular invasion was analyzed according to the 96 Well BME Cell Invasion Assay protocol (Cultrex).

[4] = tested on: MCF7-tet-off or MDA-231 cells; assay: Calcein-AM viability assay; type: cell-based, human; conditions: over 24 hrs
Experimental: In FIGS. 9A-9C compound 1 was added at the initial day of cell plating. Tumorspheres of MCF7-tet-off (−Doxy) cells were photographed for 18 days at ×40 and ×100 magnifications (FIG. 9A), and counted at the final day at ×40 magnification (FIG. 9C). Tumorspheres of MDA-231, MDA-468 and MCF7 cells at day 7 are shown (FIG. 9B). Spheres of MDA-231 and MCF7 cells were counted at day 18 with ×20 magnification. Spheres of vehicle-treated MDA-468 cells were counted at day 7 with ×20 magnification as they became fragile and disrupted 7 days after incubation. In FIG. 9C sphere number (No.) was counted from 9 fields per well. Data presented as mean±SD. Experiments were done in triplicate and repeated three times. *, P<0.05 compared to +Doxy; ^#, P<0.05 compared to −Doxy with vehicle treatment. Box, RUNX2 induction upon Doxy removal from MCF7-tet-off cells (−D). In FIG. 9D to ensure robust sphere formation, compound 1 was added 4 days after cell plating (D4+), and cells were further incubated for 5 days (D5) or for 7 days (D7). In FIG. 9E the cellular invasive ability of MCF7-tet-off cells (left) was evaluated by the 96 Well BME Cell Invasion Assay and xCELLigence systems in vitro, respectively. In parallel, similar amount of cells were plated in separate plates and treated with compound 1 for 24 hrs, and Calcein-AM assay was performed (right). […]

[5] = tested on: MCF10A non-malignant mammary epithelial cells; assay: Mammosphere formation of non-malignant cells; type: cell-based, human
BC cells = assay: Glucose consumption and lactate production; type: cell-based, human
Experimental: For measurement of glucose level, cells (100,000/well) were plated in 24-well plates and incubated overnight. Cells were treated with compound 1 (50 μM) in phenol red-free growth medium and further incubated for 6 hrs or 24 hrs. The culture medium was collected and filtered through a 0.22 μm pore membrane. Glucose level in the medium was measured using Amplex Red Glucose/Glucose Oxidase Assay Kit (Invitrogen) as per manufacturer's instructions. For lactate level, cells were treated with compound 1 for 24 hrs, and the medium was washed and replaced with HEPES-buffered Krebs-Ringer solution (Boston BioProducts) supplemented with 10 mM Glucose. Cells were incubated for 30 min, and the medium was collected and filtered through a 0.22 μm pore membrane. Lactate level in the medium was measured using Lactate Assay Kit (Sigma-Aldrich) as per manufacturer's instructions. Cell growth assays using crystal violet staining were performed to verify equal number of cells and no significant difference was found in 24 hrs of compound 1 treatment (data not shown).

RUNX2 responsive genes = assay: Q-RT-PCR of RUNX2 responsive genes; type: cell-based, human; conditions: 50 μM
Experimental: Total RNA was extracted using TRIzol (Life Technologies). One […] of total RNA was reverse transcribed with oligo-(dT) primer using the SuperScript first-strand synthesis system (Invitrogen) to synthesize cDNA. One μl of each cDNA was used for real-time RT-PCR using QuantiFast SYBR Green PCR Kit […]. mRNA expression of gene of interest relative to β-actin was calculated based on the threshold cycle (Ct) as 2^−D(DCt) method.

O=C(O)C1C2C=CC(C2)C1C(=O)Nc1ccc(Cl)c(Cl)c1 (stereo not shown) [compound 1, 3-(N-(3,4-dichlorophenyl)carbamoyl)-5-norbornene-2-carboxylic acid]
sensitivity of non-malignant cells versus BC cell lines [1]: much lower | growth inhibition of BT474 cells [2]: sensitive | mitochondrial ROS production [3]: increase in mitochondrial ROS production | invasiveness (MCF7-tet-off cells): almost abrogated | viability [4]: little effect | mammosphere formation [5]: did not have a significant influence | lactate concentration (BC cells; 50 μM): significantly reduced | glucose consumption (BC cells; MDA-231 cells): Slight but insignificant inhibition | glucose level in the medium (BC cells; RUNX2-expressing MCF7 and T47D, MCF7 and MDA-468 cells, 6 hrs and 24 hrs): increased | level of Sirt6 mRNA (RUNX2 responsive genes; MDA-231 cells, 6 hrs): increased | transcriptional levels of Glut-1 and LDHA (RUNX2 responsive genes; MDA-231 cells, 6 hrs): reduced | mRNA expression levels of MMP13, VEGF, and MMP9 (RUNX2 responsive genes; ectopic RUNX2-expressing MCF7 and T47D cells, 72 hrs): repressed | RUNX2-increased mRNA level of Glut-1 and LDHA (RUNX2 responsive genes; ectopic RUNX2-expressing T47D and MCF7 cells, 72 hrs): significantly inhibited
